Assay [1] concerns the target T1, PGD2 receptor (DP receptor) (Homo sapiens, UniProt Q13258).
T1 construct: twice centrifuged at 105,000×g for 20 minutes at 4 degree C. to obtain platelet membrane fraction as precipitate; from tissue; host or cells: human platelet membrane fraction from blood of a healthy adult
T1 sequence (Q13258 1-359): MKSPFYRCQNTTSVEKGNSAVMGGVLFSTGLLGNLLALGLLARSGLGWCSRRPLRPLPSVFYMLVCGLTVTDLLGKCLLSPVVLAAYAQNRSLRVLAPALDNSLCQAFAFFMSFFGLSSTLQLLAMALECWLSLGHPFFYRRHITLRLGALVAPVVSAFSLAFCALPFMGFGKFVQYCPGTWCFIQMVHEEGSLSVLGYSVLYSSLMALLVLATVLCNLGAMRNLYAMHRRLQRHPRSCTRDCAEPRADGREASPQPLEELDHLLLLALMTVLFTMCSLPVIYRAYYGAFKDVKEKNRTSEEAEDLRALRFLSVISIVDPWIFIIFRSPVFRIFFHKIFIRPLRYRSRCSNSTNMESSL
The assay is described as follows: PGD2 receptor (DP receptor) binding test, [3H]PGD2, human platelet membrane fraction. Particulars: 5 nM [3H]PGD2, 4 degree C., 90 minutes, read-out: Inhibition constant Ki. The method, then:
The test was conducted in accordance with the method of TsurI et al. (J. Med. Chem., 40, 3504-3507 (1997)).
(1) Preparation of Human Platelet Membrane Fraction
A sample of blood drawn from a healthy adult using a plastic syringe was placed in a plastic test tube containing 3.8% sodium citrate, and after gently mixing by overturning centrifuged at room temperature at 180×g for 20 minutes to obtain platelet-rich plasma (PRP) as supernatant. The PRP was further centrifuged at room temperature at 800×g for 20 minutes to obtain platelet as precipitate. […]
The human platelet membrane fraction (0.1 mg), 5 nM [3H]PGD2, and each compound was added to 200 μl of binding reaction solution (50 mM Tris/HCl (pH 7.4), 1 mM EDTA, 10 mM MgCl2), and reaction was conducted at 4 degree C. for 90 minutes. After reaction, the mixture was filtered under vacuum using a glass fiber filter paper, and after rinsing several times with cold physiological sodium chloride solution, residual radio activity on the filter paper was measured. The quantity of nonspecific binding in the present experiment was calculated as the quantity of radioactivity when a similar experiment was conducted in the presence of 10 μM PGD2, and the quantity of specific binding was given as the value of quantity of total binding minus quantity of nonspecific binding. […]

For the next assay, the target named is T2, PGD2 receptor (Bos taurus, UniProt A5D7K8).
T2 construct: EBTr[NBL-4] cells derived from embryonic bovine trachea; endogenous in cells; host or cells: EBTr[NBL-4] cells (embryonic bovine trachea)
T2 sequence (A5D7K8 1-361): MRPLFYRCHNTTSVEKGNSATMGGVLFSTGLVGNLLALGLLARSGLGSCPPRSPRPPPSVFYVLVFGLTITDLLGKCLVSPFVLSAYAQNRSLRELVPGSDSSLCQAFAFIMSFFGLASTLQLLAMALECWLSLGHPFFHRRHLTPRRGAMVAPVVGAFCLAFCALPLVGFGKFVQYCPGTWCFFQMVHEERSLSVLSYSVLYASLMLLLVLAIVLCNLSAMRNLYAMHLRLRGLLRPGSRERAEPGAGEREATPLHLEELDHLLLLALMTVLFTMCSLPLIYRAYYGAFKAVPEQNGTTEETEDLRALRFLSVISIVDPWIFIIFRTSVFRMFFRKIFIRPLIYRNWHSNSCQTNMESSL
The assay is described as follows: Competitive inhibition activity test to PGD2 receptor, cAMP production in EBTr[NBL-4] cells. Particulars: 37 degree C., 15 minutes. It is filed as cell-based, bovine. As to the method: EBTr[NBL-4] cells derived from embryonic bovine trachea were seeded on a micro-plate with 96 wells, at 8000 cells/well, and used for the experiment after culturing for 2 days in the presence of MEM culture medium (containing 10% calf cerum). The experiment was conducted in a MEM culture medium containing 500 μM IBMX and 10% calf serum. 100 μl of culture medium containing PGD2 and the test compound was added to initiate the reaction, and after reaction at 37 degree C. for 15 minutes, the culture medium was removed and ice-chilled PBS was added to terminate the reaction. Further, after removal of PBS, 200 μl of cytolytic agent (Lysis reagent 1) in cAMP enzymeImmunoassay system (Amersham) was added and cytolysis was brought about by shaking at room temperature for 10 minutes. The quantity of cAMP in the cytolytic agent was determined in accordance with the method described in the cAMP enzymeImmunoassay system. The inhibition activity of the test compound was calculated with the pA2 value as an indicator using the IC50 value when cAMP production quantity in the presence of 100 nM, 1 μM PGD2 was taken as 100%.
Background: Cyclic AMP is a second messenger, typically raised through Gs and lowered through Gi signalling.

The mark [2] stands for this setting: Competitive inhibition activity IC50, PGD2 (100 nM), PGD2 (100 nM) as printed, read-out: Competitive inhibition activity IC50, PGD1 (100 nM).
The mark [3] stands for this setting: PGD2 (1 μM), read-out: Competitive inhibition activity IC50, PGD2 (1 μM).

Like-named read-outs stand apart in the source and are kept apart here.

Consider `O=C(O)Cc1cccc(CC[C@@H]2[C@@H](C#C[C@@H](O)C3CCCCC3)[C@H](O)C[C@H]2Cl)c1` [Compound 38, 9-Deoxy-9β-chloro-3,4,5,16,17,18,19,20-octanol-2,6-inter-m-phenylene-15-cyclohexyl-13,14-didehydro-PGF1α], for which the Ki (in general, a dissociation constant, usually derived from enzyme kinetics or from competition with a known ligand) in assay [1] turned out to be 0.8 nM. Besides, the IC50 – broadly, the concentration that inhibits the measured activity by half – at PGD2 receptor (setting [2]) is 730 nM; at PGD2 receptor (setting [3]) it was 1160 nM.

With `O=C(O)Cc1ccccc1CC[C@@H]1[C@@H](C#C[C@@H](O)C2CCCCC2)[C@H](O)C[C@H]1Cl` [Compound 51, 9-Deoxy-9β-chloro-3,4,5, 16, 17, 18, 19,20-octanol-2,6-inter-o-phenylene-15-cyclohexyl-13,14-didehydro-PGF1α], the Ki in assay [1] was determined as 2.3 nM. Also, the IC50 stood at 3420 nM at PGD2 receptor (setting [2]) and 5370 nM at PGD2 receptor (setting [3]).

The values above are taken from patent publication US20060270740A1, “Prostaglandin derivatives” (TAISHO PHARMACEUTICAL CO., LTD. and Fumie SATO, priority 2003, published 2006).
